In test [1] the test system is lung cancer cells (line MV522). Nature of the test: Cancer cell proliferation (MV522) assay. In kind it is cell-based.
Test [2] deals with T1, unphosphorylated VEGF-R2Δ50 (FLVK) (Homo sapiens, UniProt P35968, DEL940-989/E990V).
T1 construct: VEGF-R2Δ50 contains residues 806-939 and 990-1171; made in house; host or cells: baculovirus/insect cells
Nature of the test: VEGF-R2 coupled spectrophotometric assay, unphosphorylated enzyme (FLVK). In kind it is biochemical. The settings on record: Table 3; some entries 'Slow binder'. In outline: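 Unphosphorylated VEGF-R2Δ50 (5 to 40 nM) with 20 mM poly(E4Y1), 3 mM ATP, 60 mM MgCl2, 2 mM MnCl2 in 200 mM Hepes pH 7.5. ADP production coupled via PK/LDH to NADH oxidation, read at 340 nm. Ki from activity at varying compound concentrations.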

Test [3] has as its target T2, phosphorylated VEGF-R2Δ50 (FLVK-P) (Homo sapiens, UniProt P35968, DEL940-989/E990V).
T2 construct: VEGF-R2Δ50 contains residues 806-939 and 990-1171; made in house; host or cells: baculovirus/insect cells
The test is described as follows: VEGF-R2 coupled spectrophotometric (FLVK-P) assay. In kind it is biochemical. The conditions noted are these: for inhibition at 0.05 µM: Table 3, at 50 nM; for Ki: spectrophotometric assay. In outline: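 Baculovirus-expressed human VEGF-R2Δ50 (residues 806-939/990-1171, E990V) was autophosphorylated with 3 mM ATP, 40 mM MgCl2 for 2 h at 4° C. ADP formation was coupled via PK/LDH to NADH oxidation, read at 340 nm, with 5.1 mM poly(E4Y1), 1 mM ATP, 25 mM MgCl2, Hepes pH 7.5. Ki came from activity across compound concentrations.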

Test [4] relates to human umbilical vein endothelial cells (HUVEC). Nature of the test: HUVEC proliferation assay. Type of test: cell-based. The settings on record: Homo sapiens, HUVEC. The method in brief:
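Readout was MTT dye reduction (A595) after 72 h of stimulation with VEGF at 6 ng/ml final. Compound, in 0.1% DMSO final, was added 1 h before VEGF to HUVEC starved 24 h in 1% FBS. % inhibition was scaled between VEGF-alone and unstimulated wells; IC50 was fitted from triplicate dose curves.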

A further test has as its target T3, LCK tyrosine kinase (Homo sapiens, UniProt P06239, C224D/P223M).
T3 construct: starting from amino acid residue 223 to the end of the protein at residue 509; made in house; host or cells: insect cells
The test is described as follows: LCK spectrophotometric assay. Type of test: biochemical. The settings on record: Table 3, read-out: LCK (% inh @ 1 uM).

A further test concerns the target T4, FGF-R1 (Homo sapiens, UniProt P11362, C488A/C584S/L457V).
T4 construct: starting from the endogenous methionine residue 456 to glutamate 766; made in house; host or cells: baculovirus vector expression system
The test is described as follows: FGF-R spectrophotometric assay. Type of test: biochemical. The settings on record: Table 3; % inh @ 1 uM; read-out: FGF-P Ki (nM) (% inh @ 1 uM). The method in brief: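 Kinase domain (Met456–Glu766, baculovirus-expressed) used at 50 nM in a spectrophotometric assay run as for VEGF-R2. Substrates were 2 mM ATP and 15 mM poly(E4Y1).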

In a further test the target is T5, FAKcd409 (Homo sapiens, UniProt Q05397, P410T).
T5 construct: comprises residues methionine 409 to glutamate 689; made in house; host or cells: baculovirus vector expression system
T5 sequence (Q05397 409-689 P410T): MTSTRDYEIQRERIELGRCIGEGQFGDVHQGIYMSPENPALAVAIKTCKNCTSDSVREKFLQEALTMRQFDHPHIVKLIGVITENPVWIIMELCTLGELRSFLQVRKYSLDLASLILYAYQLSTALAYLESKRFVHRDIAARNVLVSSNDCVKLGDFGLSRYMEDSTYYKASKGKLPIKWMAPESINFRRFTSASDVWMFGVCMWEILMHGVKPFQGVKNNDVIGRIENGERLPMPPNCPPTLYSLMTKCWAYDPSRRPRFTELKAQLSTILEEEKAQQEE
The test is described as follows: FAK HTS assay. In kind it is biochemical. The conditions noted are these: 10 uM compound, HTS Delphia assay; for % inhibition of FAK: 10 µM.

In the next test the target is T6, CHK1 (Homo sapiens, UniProt O14757).
T6 sequence (O14757 1-476): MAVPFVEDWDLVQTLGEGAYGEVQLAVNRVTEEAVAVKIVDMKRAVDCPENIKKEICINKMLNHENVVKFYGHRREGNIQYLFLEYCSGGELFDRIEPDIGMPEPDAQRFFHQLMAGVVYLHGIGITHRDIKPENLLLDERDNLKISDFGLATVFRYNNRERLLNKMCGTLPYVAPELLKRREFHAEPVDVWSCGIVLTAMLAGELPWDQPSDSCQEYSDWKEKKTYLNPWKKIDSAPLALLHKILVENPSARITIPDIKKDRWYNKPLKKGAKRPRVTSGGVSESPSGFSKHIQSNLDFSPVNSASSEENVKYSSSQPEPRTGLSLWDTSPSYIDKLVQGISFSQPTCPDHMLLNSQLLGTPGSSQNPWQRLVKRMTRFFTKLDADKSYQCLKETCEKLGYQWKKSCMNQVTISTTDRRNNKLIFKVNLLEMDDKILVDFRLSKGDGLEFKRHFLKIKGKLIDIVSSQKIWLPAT
The test is described as follows: CHK1 high-throughput screening. In kind it is biochemical. The settings on record: for inhibition at 20 µM: read-out: % inhibition @ 20 μM, Table 4, repeated entries per example; for % inhibition @ 20 μM: Table 4, repeated entries per example.

The next test deals with T7, CDK4/Cyclin D3 complex (Homo sapiens, UniProt P11802).
T7 construct: made in house; host or cells: insect cells co-infected with baculovirus vectors
T7 sequence (P11802 whole entry): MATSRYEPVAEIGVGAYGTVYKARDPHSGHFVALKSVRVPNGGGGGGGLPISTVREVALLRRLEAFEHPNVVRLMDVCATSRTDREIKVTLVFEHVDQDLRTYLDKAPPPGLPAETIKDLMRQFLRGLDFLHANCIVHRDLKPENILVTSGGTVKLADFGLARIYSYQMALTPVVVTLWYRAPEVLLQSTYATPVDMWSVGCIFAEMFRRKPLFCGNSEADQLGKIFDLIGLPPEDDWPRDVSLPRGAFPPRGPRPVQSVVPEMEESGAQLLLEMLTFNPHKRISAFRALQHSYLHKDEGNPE
T7 sequence (P30281 whole entry partner): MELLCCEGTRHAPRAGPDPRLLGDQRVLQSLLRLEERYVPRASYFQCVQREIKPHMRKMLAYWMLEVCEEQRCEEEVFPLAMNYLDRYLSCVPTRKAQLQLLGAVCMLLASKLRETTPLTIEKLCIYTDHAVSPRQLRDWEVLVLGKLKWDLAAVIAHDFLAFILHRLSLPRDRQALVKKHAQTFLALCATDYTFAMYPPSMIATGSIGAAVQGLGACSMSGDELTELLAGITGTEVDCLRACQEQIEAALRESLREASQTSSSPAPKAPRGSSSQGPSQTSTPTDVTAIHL
Nature of the test: CDK4/Cyclin D assay. The conditions noted are these: Table 2. Type of test: biochemical. The method in brief:
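Insect-cell-expressed CDK4/cyclin D3 (50 nM) phosphorylating His-tagged Rb fragment (residues 386-928) with 25 μM [^32P]ATP in HEPES pH 7.4, MgCl2, 2% DMSO; 20 min at 30 °C, EDTA stop. Filter-captured 32P by phosphorimager; apparent Ki from competitive or tight-binding inhibition fits.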

For a further test, the target named is CDK2/Cyclin A complex (Homo sapiens, UniProt P24941). Nature of the test: CDK2/Cyclin A assay. The conditions noted are these: Table 2. Type of test: biochemical. The method in brief: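 Radiometric assay: 150 nM CDK2/cyclin A (insect-cell CDK2, truncated cyclin A) phosphorylates His-tagged Rb fragment (residues 386-928) with 25 μM ATP plus [32P]ATP, pH 7.4 HEPES, 2% DMSO, 30 °C for 20 min. Filter-captured product counted by phosphorimager; apparent Ki from competitive or tight-binding inhibition fits.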

The values below come from patent publication US6620828B2, “Thiazole compounds and pharmaceutical compositions for inhibiting protein kinases and methods for their use” (Agouron Pharmaceuticals, Inc., priority 1999, dated 2003).

As a reminder, the IC50 is the concentration at which inhibition is half-maximal. A lower IC50 goes with greater potency in that assay. What is called Ki is a dissociation constant, usually derived from enzyme kinetics or from competition with a known ligand.

Several values for one entry are separate records, joined by “and”; a condition that tells them apart may be missing. Identical values can stand only once. Counter-ions that a name gives are not always drawn.

T2 sequence (P35968 with tags, fused parts or gaps DEL940-989/E990V limits assumed): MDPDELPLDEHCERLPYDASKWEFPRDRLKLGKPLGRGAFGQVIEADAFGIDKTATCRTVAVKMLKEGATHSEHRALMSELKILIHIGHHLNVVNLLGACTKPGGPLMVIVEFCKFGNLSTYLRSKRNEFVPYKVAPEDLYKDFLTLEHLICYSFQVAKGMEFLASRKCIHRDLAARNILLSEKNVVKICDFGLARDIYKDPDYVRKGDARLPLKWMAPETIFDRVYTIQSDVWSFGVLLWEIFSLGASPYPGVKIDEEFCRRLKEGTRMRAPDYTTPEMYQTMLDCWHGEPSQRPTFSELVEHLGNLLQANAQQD
T1 sequence (P35968 with tags, fused parts or gaps DEL940-989/E990V limits assumed): as above
T3 sequence (P06239 223-509 P223M/C224D): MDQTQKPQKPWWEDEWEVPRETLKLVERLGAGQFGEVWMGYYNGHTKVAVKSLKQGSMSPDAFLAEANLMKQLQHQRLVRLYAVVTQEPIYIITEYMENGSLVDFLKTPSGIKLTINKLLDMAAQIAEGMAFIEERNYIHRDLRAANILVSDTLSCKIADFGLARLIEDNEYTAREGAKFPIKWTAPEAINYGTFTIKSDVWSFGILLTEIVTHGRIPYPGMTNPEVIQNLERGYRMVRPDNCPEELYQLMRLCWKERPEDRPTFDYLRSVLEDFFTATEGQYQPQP
T4 sequence (P11362 456-766 L457V/C488A/C584S): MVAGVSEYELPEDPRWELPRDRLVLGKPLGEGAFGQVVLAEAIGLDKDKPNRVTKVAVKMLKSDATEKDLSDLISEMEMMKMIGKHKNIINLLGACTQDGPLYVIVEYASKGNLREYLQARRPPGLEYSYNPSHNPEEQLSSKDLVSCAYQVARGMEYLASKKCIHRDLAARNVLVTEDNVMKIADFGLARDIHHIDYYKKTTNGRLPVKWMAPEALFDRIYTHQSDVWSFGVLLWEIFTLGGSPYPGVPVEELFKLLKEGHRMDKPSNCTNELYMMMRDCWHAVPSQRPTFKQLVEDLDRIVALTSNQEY

Take `COc1cccc(C(=O)Nc2cc(-c3noc(-c4sc(Nc5cc(OC)c(OC)c(OC)c5)nc4N)n3)c(Cl)cc2F)c1` [D(70), N-(5-{5-[4-Amino-2-(3,4,5-trimethoxy-phenylamino)-thiazol-5-yl]-[1,2,4]oxadiazol-3-yl}-4-chloro-2-fluoro-phenyl)-3-methoxy-benzamide TFA salt]: the IC50 in [1] (MV522, Table 3) is > 10000 nM; in test [4] (Table 3), 5.4 nM. Also, the Ki in test [2] turned out to be 3.5 nM. Moreover, the inhibition at 0.05 µM in test [3] came out at 91%. The inhibition at 1 µM worked out at 61% on LCK tyrosine kinase and 59% on FGF-R1.

Regarding `Nc1nc(Nc2ccc3c(c2)OCCO3)sc1-c1nc(-c2cccc(NC(=O)c3ccccc3)c2)cs1` [A(45), N-{3-[4′-Amino-2′-(2,3-dihydro-benzo[1,4]dioxin-6-ylamino)-[2,5′]bithiazolyl-4-yl]-phenyl}-benzamide], the Ki in test [3] (Table 1) came to 9.7 nM. Also, the “% inhibition of FAK” value at FAKcd409 is −13% and −4% and −6%. Besides, the inhibition at 20 µM at CHK1 was -1%.

Regarding `Cc1ccc(Nc2nc(N)c(-c3nc(-c4cccc(NC(=O)OCc5ccccc5)c4)cs3)s2)cc1` [A(36), [3-(4′-Amino-2′-p-tolylamino-[2,5′]bithiazolyl-4-yl)-phenyl]-carbamic acid benzyl ester], the “FLVK-P % inhibition @ 0.05” value in [3] (Table 1, at 0.05, concentration unit not printed (head nM)) was 36% @. For the same molecule, on FAKcd409, the “% inhibition of FAK” value is −6% and −11% and −15%. Moreover, at CHK1, the inhibition at 20 µM came out at 2.8%.

Consider `COc1cc(Nc2nc(N)c(-c3nc(-c4cccc(C(=O)Nc5ccc(C(C)C)c(C)c5)c4)cs3)s2)cc(OC)c1OC` [A(34), 3-[4′-Amino-2′-(3,4,5-trimethoxy-phenylamino)-[2,5′]bithiazolyl-4-yl]-N-(4-isopropyl-3-methyl-phenyl)-benzamide], for which the “% inhibition of FAK” value on FAKcd409 was −3% and −8% and −13%. Besides, the “% inhibition @ 20 μM” value on CHK1 is 4.6% and −3.4%.

`Cc1cccc(Nc2nc(N)c(-c3nc(-c4cccc(NC(=O)c5ccccc5)c4)cs3)s2)c1` [A(44), [3-(4′-Amino-2′-m-tolylamino-[2,5′]bithiazolyl-4-yl)-phenyl]-benzamide]: the “% inhibition of FAK” value at FAKcd409 is −15% and −5% and −10%. Also, on CHK1, the inhibition at 20 µM was -7.1%.

On to `CC(=O)Nc1cc(Nc2nc(N)c(-c3nc(-c4cccc(NC(=O)c5ccccc5)c4)cs3)s2)ccc1C` [A(48), N-{3-[2′-(3-Acetylamino-4-methyl-phenylamino)-4′-amino-[2,5′]bithiazolyl-4-yl]-phenyl}-benzamide], for which the IC50 in [1] (MV522, Table 1) is > 10000 nM; in [4] (Table 1) it was 350 nM. Besides, in [3] (Table 1), the Ki came out at 3.1 nM. In addition, the “% inhibition of FAK” value on FAKcd409 is −2% and −8%. Moreover, on CHK1, the inhibition at 20 µM was 1.3%.

For `Nc1nc(Nc2ccc3c(=O)[nH][nH]c(=O)c3c2)sc1-c1nc(-c2cccc(NC(=O)c3ccccc3)c2)cs1` [A(49), N-{3-[4′-Amino-2′-(1,4-dioxo-1,2,3,4-tetrahydro-phthalazin-6-ylamino)-[2,5′]bithiazolyl-4-yl]-phenyl}-benzamide], on FAKcd409, the “% inhibition of FAK” value was −13% and −7% and −10%. Further, at CHK1, the inhibition at 20 µM is 14.1%.

As for `Nc1nc(Nc2cccnc2)sc1-c1nc(-c2cccc(NC(=O)c3ccccc3)c2)cs1` [A(53), 3-(4′-Amino-4-(3-benzamidophenyl)-[2,5′]bithiazolyl-2′-ylamino)-pyridine], the IC50 in test [1] (MV522, Table 1) was > 10000 nM; in [4] (Table 1), 370 nM. Further, affinity in test [3] (Table 1) was put at a Ki of 24 nM. Besides, the “% inhibition of FAK” value on FAKcd409 was −10% and −8%. For the same molecule, the inhibition at 20 µM on CHK1 came to 4%.

On to `COc1cccc(C(=O)Nc2ccc(F)c(-c3noc(-c4sc(Nc5cc(OC)c(OC)c(OC)c5)nc4N)n3)c2)c1` [D(72), 3-[2-fluoro-5-[(3-methoxybenzoyl)amino]-phenyl]-5-[2-[(3,4,5-trimethoxyphenyl)amino]-4-amino-5-thiazolyl]-1,2,4-oxadiazole], for which the IC50 was > 10000 nM in [1] (MV522, Table 3) and 4.7 nM in test [4] (Table 3). Also, the affinity in test [2], expressed as Ki, was 0.9 nM. For the same molecule, the inhibition at 1 µM on LCK tyrosine kinase stood at 35%; on FGF-R1, 49%.

For the molecule `COc1cc(Nc2nc(N)c(-c3nc(-c4cc(NC(=O)OC(C)(C)C)c(F)cc4Cl)no3)s2)cc(OC)c1OC` [B(14), (5-{5-[4-Amino-2-(3,4,5-trimethoxy-phenylamino)-thiazol-5-yl]-[1,2,4]oxadiazol-3-yl}-4-chloro-2-fluoro-phenyl)-carbamic acid tert-butyl ester], the IC50 in [1] (MV522, Table 3) was > 10000 nM; in test [4] (Table 3), 11 nM. The same molecule gave a Ki in test [2] of 0.76 nM. Moreover, in [3], the inhibition at 0.05 µM was 13%. The inhibition at 1 µM on LCK tyrosine kinase amounted to 10%; on FGF-R1, 46%.

As to `CCOC(=O)c1csc(-c2sc(Nc3ccc(S(N)(=O)=O)cc3)nc2N)n1` [A(68), Ethyl 4′-amino-2′-(4-sulfamoyl-phenylamino)-[2,5′]bithiazolyl-4-carboxylate], the results for the Ki at CDK4/Cyclin D3 complex and at CDK2/Cyclin A complex were 4500 nM and 130 nM, respectively. Moreover, the inhibition at 10 µM against FAKcd409 was -18%.

In the case of `CCOC(=O)c1nc(-c2sc(Nc3ccc(S(N)(=O)=O)cc3)nc2N)sc1Cc1ccccc1` [A(73), 4′-Amino-5-benzyl-2′-(4-sulfamoyl-phenylamino)-[2,5′]bithiazolyl-4-carboxylic acid ethyl ester], the inhibition at 100 µM at CDK4/Cyclin D3 complex (at 100 (printed 100 or 100 μM)) was < 0%. Moreover, on CDK2/Cyclin A complex (at 100 (printed 100 or 100 μM)), the “CDK2 % inhibition @ 100” value was determined as 36% @. In addition, the “% inhibition of FAK” value at FAKcd409 is −23% and −30%. For the same molecule, on CHK1, the “% inhibition @ 20 μM” value is 14.4% and 7.3%; the inhibition at 20 µM turned out to be 14.3%.

On to `CCOC(=O)c1cccc(Nc2nc(N)c(-c3nc(-c4cccc(NC(=O)c5ccccc5)c4)cs3)s2)c1` [A(40), 3-[4′-Amino-4-(3-benzoylaminophenyl)-[2,5′]bithiazolyl-2′-ylamino]-benzoic acid ethyl ester], for which the inhibition at 10 µM against FAKcd409 is -6%. Also, the inhibition at 20 µM on CHK1 is 1%.
